Read-outs that look alike come from different tables or passages of the source.
Key:
[1] = test system: OCTs; test: Inhibition of [14C]choline uptake in MCF-7 cells (competitive inhibition assay); format: cell-based, human; conditions: mean ± SD (n = 3)
Protocol: (§1) The following day, after removal of the culture medium, the cells were carefully washed with prewarmed HBSS (Hanks’ balanced salt solution) containing 125 mM NaCl, 4.8 mM KCl, 1.2 mM MgSO4, 1.2 mM KH2PO4, 1.3 mM CaCl2, 5.6 mM glucose and 25 mM HEPES (pH 7.4). […] Then, the cells were washed three times with ice-cold HBSS (500 μL) and were lysed with 250 μL of 0.1-M NaOH in the ice bath, and the lysate was mixed with 1.0 mL of an emulsifier safe cocktail (PerkinElmer, Waltham, MA, USA). The radioactivity was measured by liquid scintillation counting (MicroBeta^2 counter, PerkinElmer, Waltham, MA, USA). The studies were carried out with the use of at least three replicates from the same cell passage.

[2] = test system: OCTs; test: Inhibition of [14C]choline uptake in MDA-MB-231 cells (competitive inhibition assay); format: cell-based, human; conditions: mean ± SD (n = 3)
Protocol: as §1

[3] = test system: MCF-7 cells; test: Cellular uptake of metformin sulfonamides in MCF-7 cells (HPLC); format: in vitro ADME, human
Protocol: (§2) The uptake of metformin sulfonamides (1–9) in MCF-7 and MDA-MB-231 cells was studied by incubation of the cells with 10−3000 μmol/L of compounds in 250 μL of prewarmed HBSS buffer at 37 °C for 10 min. Subsequently, the cells were then washed three times with 500 μL of ice-cold HBSS and lysed with 250 μL of 0.1-M NaOH. The samples were collected, centrifuged (5 min, 1400 rpm) and the supernatants were analyzed by the HPLC method. The concentration of each compound in the cells was calculated on the basis of the standard curve prepared by spiking known amounts of every compound on the cell layers in 250 μL of 0.1-M NaOH.
(§3) The concentration of the studied sulfonamides (1–9) was assessed using the HPLC system, consisting of an Agilent 1100 binary pump (Agilent Technologies Inc., Wilmington, DE, USA), an 1100 micro-vacuum degasser, an HP 1050 autosampler and an HP 1050 variable wavelength detector (operated at 235 nm). The chromatographic separations of compounds 1–9 were conducted on an Agilent Zorbax SB-C18 analytical column (4.6 mm × 150 mm, 5 μm) using an isocratic elution of water containing 0.1% formic acid (pH ca. 3.0) and acetonitrile containing 0.1% formic acid with a changing ratio, depending on the compound. The analyses were conducted at room temperature (RT). The detailed procedure of chromatographic analysis was described in our previous paper. The studies were conducted in quadruplicates.
(§4) The protein concentrations in representative wells of each plate were assessed using a Bio-Rad protein assay according to the Bradford method (EnVision, PerkinElmer, Inc., Waltham, MA, USA).

[4] = test system: MDA-MB-231 cells; test: Cellular uptake of metformin sulfonamides in MDA-MB-231 cells (HPLC); format: in vitro ADME, human
Protocol: as §2, §3, §4

[5] = test system: MCF-7 cells; test: Uptake in the presence of OCT and MATE inhibitors, MCF-7 cells; format: in vitro ADME, human; conditions: for interactions with OCT, PMAT and MATE1 transporters, MCF-7: summary from uptake with inhibitors
Protocol: (§5) The uptake of sulfonamide derivatives of metformin (1–9) in MCF-7 and MDA-MB-231 cells was studied also in the presence of disopyramide, cimetidine (OCT1 and 3 inhibitors), lopinavir (OCT and PMAT inhibitor) and methenamine (MATE and OCT2 inhibitors). The cells were incubated (37 °C, 10 min) with compounds 1–9 at concentrations of 400 and 800 μmol/L and inhibitors (disopyramide, cimetidine, lopinavir or methenamine) in 250 μL of prewarmed HBSS buffer. The protocol of determination of the compound concentration was as described above.

[6] = test system: MDA-MB-231 cells; test: Uptake in the presence of OCT and MATE inhibitors, MDA-MB-231 cells; format: in vitro ADME, human; conditions: for interactions with OCT, PMAT and MATE1 transporters, MDA-MB-231: summary from uptake with inhibitors
Protocol: as §5

[7] = test system: MCF-7 cells; test: Cell viability WST-1 assay, MCF-7; format: cell-based; conditions: Homo sapiens, MCF7; WST-1, 24 h, mean ± SD (n = 6–8); read-out: IC50 inhibition of MCF-7 cells' viability
Protocol: (§6) The viability of MCF-7 and MDA-MB-231 cells was determined using a colorimetric WST-1 assay (Takara, Takara Bio Europe, Saint-Germain-en-Laye, France). Both cell lines were seeded at a density of 1 × 10^4 per well on 96-well plates and were cultured for 24 h to obtain 70% confluence. The following day, the cells were treated with various concentrations of compounds 1–9 diluted in the cell culture medium ([…]). The cells were incubated with tested compounds or pure medium (control) for 24 h (37 °C, 5% CO2). Afterwards, the cells were washed with 100 μL of culture medium, and then, the reagent dissolved in the medium was added (100 μL). The plates were incubated at the standard condition for 1.5 h, and the absorbance was read at 450 nm using a microplate reader (iMARK, Bio-Rad, Bio-Rad Laboratories Inc., Hercules, CA, USA). […] The results of samples treated with the test compounds were expressed as a percentage of the control samples. The data were presented as mean ± standard deviation (SD), n = 8. IC50 values (the concentration of the tested compound that inhibited cell growth by 50%) were calculated using a concentration-response curve (GraphPad Prism, Software, San Diego, CA, USA).
(§7) The concentrations contributing to the 50% of cell growth inhibition (IC50) were calculated using nonlinear regression analysis (fitting the curve to log (concentration) vs. cellular response).

[8] = test system: MDA-MB-231 cells; test: Cell viability WST-1 assay, MDA-MB-231; format: cell-based; conditions: Homo sapiens, WST-1, 24 h
Protocol: as §6, §7

[9] = Eadie-Hofstee analysis, transporter I
[10] = Eadie-Hofstee analysis, transporter I, read-out: Km, transporter I, MCF-7
[11] = Eadie-Hofstee analysis, transporter II
[12] = Eadie-Hofstee analysis, transporter II, read-out: Km, transporter II, MCF-7
[13] = Michaelis-Menten curve, read-out: Km MCF-7 (Michaelis Menten curves)
[14] = Eadie-Hofstee analysis, transporter I, read-out: Km, transporter I, MDA-MB-231
[15] = Eadie-Hofstee analysis, transporter II, read-out: Km, transporter II, MDA-MB-231
[16] = compound and inhibitor 400 and 800 µmol/L, 10 min, 37 °C

Row | IC50 [1] | IC50 [2] | uptake in the presence of disopyramide, MCF-7 [5, 16] | uptake in the presence of lopinavir, MCF-7 [5, 16] | interactions with OCT, PMAT and MATE1 transporters, MCF-7 [5] | interactions with OCT, PMAT and MATE1 transporters, MDA-MB-231 [6] | IC50 [7] | Compound | Vmax, transporter I, MCF-7 [3, 9] | Km [3, 10] | Vmax, transporter II, MCF-7 [3, 11] | Km [3, 12] | Vmax MCF-7 (Michaelis Menten curves) ([3]; Michaelis-Menten curve) | Km [3, 13] | Vmax, transporter I, MDA-MB-231 [4, 9] | Km [4, 14] | Vmax, transporter II, MDA-MB-231 [4, 11] | Km [4, 15] | other results
1 | 2923 ± 9.1 µM | 4449 ± 18.1 µM | profoundly elevated | profoundly elevated | OCT1, OCT3, PMAT | OCT1, OCT3 | 533 ± 87.4 µM | CN(C)C(=N)N=C(N)NS(=O)(=O)c1cccc(Cl)c1 [Compound 2] | 19.2 ± 2.31 nmol/min/mg | 4.01 ± 0.696 mM | 24.91 ± 5.44 nmol/min/mg | 7.47 ± 1.82 mM | 34.4 ± 17.2 nmol/min/mg | 9.05 ± 1.52 mM | 0.077 ± 0.008 nmol/min/mg | 2.4 ± 0.353 mM | 0.111 ± 0.016 nmol/min/mg | 5.47 ± 0.73 mM | uptake into MCF-7 cells ([3]; 800 μmol/L, 10 min incubation, 37 °C): 2.669 ± 0.040 nmol/min/mg protein; uptake in MCF-7 cells relative to metformin ([3]; fold higher than parent drug metformin, 800 μmol/L): approximately 25 fold; Vmax MDA-231 cells (Michaelis Menten curves) ([4]; Michaelis-Menten curve): 0.157 ± 0.129 nmol/min/mg; Km ([4]; Michaelis-Menten curve, read-out: Km MDA-231 cells (Michaelis Menten curves)): 6.75 ± 1.73 mM; uptake in the presence of cimetidine, MCF-7 [5, 16]: inhibited; uptake in the presence of cimetidine, MDA-MB-231 [6, 16]: no significant differences; uptake in the presence of disopyramide, MDA-MB-231 [6, 16]: no significant differences; uptake in the presence of lopinavir, MDA-MB-231 [6, 16]: no significant differences; uptake in the presence of methenamine, MDA-MB-231 [6, 16]: no significant differences; IC50 ([8]; MDA-MB-231, mean ± SD (n = 6–8), read-out: IC50 inhibition of MDA-MB-231 cells' viability): 844 ± 135 µM
2 | 888 ± 11.4 µM | 593 ± 15 µM | significantly reduced | increased | OCT1, MATE1, PMAT | OCT1, OCT3 | 106 ± 12.3 µM | CN(C)C(=N)N=C(N)NS(=O)(=O)c1cccc(Br)c1 [Compound 5] | 1.635 ± 0.21 nmol/min/mg | 3.62 ± 0.619 mM | 2.167 ± 0.196 nmol/min/mg | 6.85 ± 0.713 mM | 1.87 ± 0.95 nmol/min/mg | 4.94 ± 1.34 mM | 0.038 ± 0.004 nmol/min/mg | 0.468 ± 0.109 mM | 0.098 ± 0.011 nmol/min/mg | 1.07 ± 0.204 mM | uptake in the presence of methenamine, MCF-7 [5, 16]: increased; viability at 3000 µM ([8]; MDA-MB-231, 24 h, 3000 µmol/L, read-out: percentage of viability of MDA-MB-231 cells): ~60%

Source: paper PMC7177633, “Effective Cellular Transport of Ortho-Halogenated Sulfonamide Derivatives of Metformin Is Related to Improved Antiproliferative Activity and Apoptosis Induction in MCF-7 Cells” (International Journal of Molecular Sciences, 2020)
